# Literature values as cited in PMC7751758, “Repurposing Sigma-1 Receptor Ligands for COVID-19 Therapy?” (Frontiers in Pharmacology, 2020).
# pIC50, pKi: −log10 of the molar value. Where “and” joins values, the source holds several entries; their conditions need not be identical. Equal entries are not always repeated. Entries after “also recorded” stand apart in the source; their conditions may differ. Where two headings read alike, the source gives them in different places.
# Legend:
# [1] = tested on: COVID-19; settings: for decreasing the likelihood of death or speeding recovery: large, randomized clinical trial in hospitalized patients, ref FDA communication
# [2] = tested on: EBOV; settings: mouse, in vivo
# [3] = tested on: SARS-CoV
# [4] = tested on: Ebola virus (EBOV)
# [5] = tested on: SARS-CoV-2 in Huh-7 cells; settings: for antiviral potency: devoid of cytotoxicity, ref Mirabelli et al., 2020
# [6] = tested on: Ebola; settings: in vivo
# [7] = tested on: HCV; settings: entry and assembly steps in Huh-7.5.1 cells, ref Cheng et al., 2013
# [8] = biological target: Sigma-1 receptor; settings: for pIC50: read-out: Sigma-1 receptor affinity IC50; for pKi: read-out: Sigma-1 receptor affinity Ki
# [9] = tested on: HCV-induced cytopathic effect on the engineered cell line n4mBid; settings: leads of the cell protection screen; ref Chockalingam et al., 2010
# [10] = tested on: H5N1 virus in A549 lung epithelial cells
# [11] = tested on: H5N1 virus; settings: mouse, in vivo
# [12] = tested on: EBOV
# [13] = associated with bioaccumulation of the drugs; ref Palmeira et al., 2020
# [14] = tested on: HCoV-OC43; settings: replication in HRT-18 cells, ref Keyaerts et al., 2009
# [15] = tested on: CHIKV; settings: cytopathic effect induced by Chikungunya virus and other alphaviruses (Semliki Forest virus and Sindbis virus)
# [16] = tested on: EBOV; settings: guinea pig, in vivo
# [17] = tested on: HCoV-OC43; settings: mothers treated daily with chloroquine (15 mg/kg); ref Keyaerts et al., 2009
# [18] = tested on: MERS-CoV
# [19] = tested on: HCoV-229E; settings: replication in cell culture
# [20] = tested on: HCV infection; settings: without significantly reducing cell biomass; ref Mingorance et al., 2014
# [21] = tested on: EBV; settings: infection of B lymphocytes
# [22] = tested on: HCV infection of human hepatocarcinoma Huh-7 cells; settings: absence of cytotoxicity at low micromolar and submicromolar concentrations; ref Gastaminza et al., 2010
# [23] = tested on: SARS-CoV-2 in iPSC-derived alveolar epithelial type 2 cells (iAEC2s); settings: ref Mirabelli et al., 2020, read-out: IC50 against SARS-CoV-2
# [24] = tested on: Huh-7 cells; settings: ref Mirabelli et al., 2020; read-out: CC50 (cell toxicity)
# [25] = tested on: HIV; settings: exposure to cocaine, by activating Sig-1R; ref Roth et al., 2005
structure (smiles),measurement,setting,value
CCCCc1oc2ccccc2c1C(=O)c1cc(I)c(OCCN(CC)CC)c(I)c1 [Amiodarone],outcome of a patient with COVID-19-related respiratory failure,"[1]; case report, off-label short therapy 5 days with supportive measures, ref Castaldo et al., 2020",recovered
same,survival of infected mice,[2],increased survival
same,Antiviral activity: Virus,[3],inhibit the spreading in vitro of SARS-CoV
same,viral inhibition,[4],> 50%
same,antiviral potency,[5],below 1 µM
same,case fatality rate compared with local historical data,[6],decrease in case fatality rate
same,Antiviral activity: Virus,[7],inhibit
CN(C)CCC=C1c2ccccc2CCc2ccccc21 [Amitriptyline],pIC50,[8],6.67 and 6.52
same,pKi,[8],6.54
same,alleviation of HCV-induced cytopathic effect (n4mBid cell viability relative to untreated cells),[9],increase n4mBid cell viability; also recorded: inhibit the HCV-induced cytopathic effect
same,viability of A549 cells infected with H5N1,[10],increased viability
same,infiltrating cell count,[11],reduced
same,lung edema and survival,[11],improved
same,lung injury,[11],decreased
CC(C)COCC(CN(Cc1ccccc1)c1ccccc1)N1CCCC1 (centres unmarked) [Bepridil],protection in a murine EBOV infection model,[2],protective ability
same,pIC50,[8],6.44
same,Antiviral activity: Virus,[12],active
CCN(CC)CCCC(C)Nc1ccnc2cc(Cl)ccc12 (centres unmarked) [Chloroquine],decreasing the likelihood of death or speeding recovery,[1]; 2020,no benefit
same,survival of infected mice,[2],increased survival
same,Antiviral activity: Virus,[3],inhibited the replication of SARS-CoV; also recorded: in vitro activity
same,side effects,[13],serious retinopathies and cardiopathies
same,cellular toxicity,[4],< 30%
same,viral inhibition,[4],> 50%
same,pIC50,[8],5.64
same,pKi,[8],6.96
same,Antiviral activity: Virus,[14],inhibited HCoV-OC43 replication
same,Antiviral activity: Virus,"[15]; ref Pohjala et al., 2011, listed as chloroquine",inhibition of the cytopathic effect
same,survival,[16],none of the tested doses increased survival
same,HCoV-OC43-induced death in newborn mice,[17],prevented HCoV-OC43-induced death
same,Antiviral activity: Virus,[18],in vitro activity
same,Antiviral activity: Virus,"[19]; ref de Wilde et al., 2014, listed as chloroquine",inhibited the replication
CN(C)CCCN1c2ccccc2Sc2ccc(Cl)cc21 [Chlorpromazine],Antiviral activity: Virus,[3],inhibited the replication; also recorded: in vitro activity; also recorded: SARS-CoVSARS-CoV-2
same,reduction of HCV infection,[20],more than one order of magnitude
same,pKi,[8],6.84
same,Antiviral activity: Virus,"[15]; ref Pohjala et al., 2011, listed as chlorpromazine",inhibition of the cytopathic effect
same,Antiviral activity: Virus,[18],in vitro activity
same,Antiviral activity: Virus,"[19]; ref de Wilde et al., 2014, listed as chlorpromazine",inhibited the replication
same,Antiviral activity: Virus,"[21]; ref Nemerow and Cooper, 1984, listed as chlorpromazine",inhibit infection of B lymphocytes
CN(C)CCC=C1c2ccccc2COc2ccccc21 [Doxepin],"reduction in HCV infection of Huh-7 cells, as compared to the vehicle DMSO control",[22],> 85%
same,Antiviral activity: Virus,"[15]; ref Pohjala et al., 2011, listed as doxepin",inhibition of the cytopathic effect
Cc1cc(OCCN2CCOCC2)nn1-c1ccc2ccccc2c1 [E-52862 (S1RA)],pIC50,[23],6.00
same,antiviral potency,[5],below 1 µM
same,pIC50,"[5]; ref Mirabelli et al., 2020, read-out: IC50 against SARS-CoV-2",6.65
same,CC50,[24],> 5000 nM
O=C(CCCN1CCC(O)(c2ccc(Cl)cc2)CC1)c1ccc(F)cc1 [Haloperidol],"reduction in HCV infection of Huh-7 cells, as compared to the vehicle DMSO control",[22],> 85%
same,Antiviral activity: Virus,"[21]; ref Nemerow and Cooper, 1984, listed as haloperidol",inhibit infection of B lymphocytes
CCN(CCO)CCCC(C)Nc1ccnc2cc(Cl)ccc12 (centres unmarked) [Hydroxychloroquine],efficacy in COVID-19 patients,"[1]; first clinical studies, ref Geleris et al., 2020, Mitjà et al., Roustit et al.",do not support efficacy
same,adverse drug reactions in patients with COVID-19,"[1]; human, in vivo",serious adverse drug reactions
same,decreasing the likelihood of death or speeding recovery,[1]; 2020,no benefit
same,Antiviral activity: Virus,[3],in vitro activity
same,side effects,[13],serious retinopathies and cardiopathies
same,pIC50,[8],5.67
same,Antiviral activity: Virus,[18],in vitro activity
CC(C(O)c1ccc(O)cc1)N1CCC(Cc2ccccc2)CC1 (centres unmarked) [Ifenprodil],pIC50,[8],8.26
same,alleviation of HCV-induced cytopathic effect (n4mBid cell viability relative to untreated cells),[9],increase n4mBid cell viability; also recorded: inhibit the HCV-induced cytopathic effect
same,cell viability in vitro,[10],increased cell viability
same,leukocyte infiltration and lung injury,[11],markedly decreased
same,survival,[11],improved survival
CN(C)C(=O)C(CCN1CCC(O)(c2ccc(Cl)cc2)CC1)(c1ccccc1)c1ccccc1 [Loperamide],Antiviral activity: Virus,[3],inhibited the replication
same,Antiviral activity: Virus,"[19]; ref de Wilde et al., 2014, listed as loperamide",inhibited the replication
CN1CCC(CN2c3ccccc3Sc3ccccc32)C1 (centres unmarked) [Methdilazine],pIC50,[8],6.78
same,Antiviral activity: Virus,"[15]; ref Pohjala et al., 2011, listed as methdilazine",inhibition of the cytopathic effect
OCCN1CCN(CCCN2c3ccccc3Sc3ccc(Cl)cc32)CC1 [Perphenazine],reduction of HCV infection,[20],more than one order of magnitude
same,alleviation of HCV-induced cytopathic effect (n4mBid cell viability relative to untreated cells),[9],increase n4mBid cell viability
same,Antiviral activity: Virus,"[15]; ref Pohjala et al., 2011, listed as perphenazine",inhibition of the cytopathic effect
CN1CCN(CCCN2c3ccccc3Sc3ccc(Cl)cc32)CC1 [Prochlorperazine],"reduction in HCV infection of Huh-7 cells, as compared to the vehicle DMSO control",[22],> 85%
same,cellular toxicity,[4],< 30%
same,viral inhibition,[4],> 50%
same,Antiviral activity: Virus,[12],active
same,Antiviral activity: Virus,"[21]; ref Nemerow and Cooper, 1984",inhibit infection of B lymphocytes
CC(CN1c2ccccc2Sc2ccccc21)N(C)C (centres unmarked) [Promethazine],Antiviral activity: Virus,[3],in vitro activity; also recorded: SARS-CoV SARS-CoV-2
same,pIC50,[8],6.07
same,Antiviral activity: Virus,[18],in vitro activity
same,Antiviral activity: Virus,"[21]; ref Nemerow and Cooper, 1984, listed as promethazine",inhibit infection of B lymphocytes
CN[C@H]1CC[C@@H](c2ccc(Cl)c(Cl)c2)c2ccccc21 [Sertraline],protection in a murine EBOV infection model,[2],protective ability
same,Antiviral activity: Virus,[12],active
CCSc1ccc2c(c1)N(CCCN1CCN(C)CC1)c1ccccc1S2 [Thiethylperazine],Antiviral activity: Virus,[3],in vitro activity; also recorded: SARS-CoV SARS-CoV-2
same,pIC50,[8],6.28
same,Antiviral activity: Virus,"[15]; ref Pohjala et al., 2011, listed as thiethylperazine",inhibition of the cytopathic effect
same,Antiviral activity: Virus,[18],in vitro activity
CSc1ccc2c(c1)N(CCC1CCCCN1C)c1ccccc1S2 (centres unmarked) [Thioridazine],Antiviral activity: Virus,"[15]; ref Pohjala et al., 2011, listed as thioridazine",inhibition of the cytopathic effect
same,Antiviral activity: Virus,[12],active
CN1CCN(CCCN2c3ccccc3Sc3ccc(C(F)(F)F)cc32)CC1 [Trifluoperazine],"reduction in HCV infection of Huh-7 cells, as compared to the vehicle DMSO control",[22],> 85%
same,alleviation of HCV-induced cytopathic effect (n4mBid cell viability relative to untreated cells),[9],increase n4mBid cell viability
same,Antiviral activity: Virus,"[21]; ref Nemerow and Cooper, 1984, listed as trifluoperazine",inhibit infection of B lymphocytes
COc1ccc(CCN(C)CCCC(C#N)(c2ccc(OC)c(OC)c2)C(C)C)cc1OC (centres unmarked) [Verapamil],pIC50,[8],[…]
same,antiviral potency,[5],below 1 µM
CC[C@H]1OC(=O)[C@H](C)[C@@H](O[C@H]2C[C@@](C)(OC)[C@@H](O)[C@H](C)O2)[C@H](C)[C@@H](O[C@@H]2O[C@H](C)C[C@H](N(C)C)[C@H]2O)[C@](C)(O)C[C@@H](C)CN(C)[C@H](C)[C@@H](O)[C@]1(C)O [azithromycin],survival of infected mice,[2],increased survival
same,survival,[16],none of the tested doses increased survival
COC(=O)[C@H]1[C@@H](OC(=O)c2ccccc2)C[C@@H]2CC[C@H]1N2C [cocaine],HIV infection,[25],enhance HIV infection
Cc1cccc(C)c1OCC(=O)N[C@@H](Cc1ccccc1)[C@@H](O)C[C@H](Cc1ccccc1)NC(=O)[C@H](C(C)C)N1CCCNC1=O [lopinavir],Antiviral activity: Virus,[3],inhibited the replication
same,Antiviral activity: Virus,"[19]; ref de Wilde et al., 2014",inhibited the replication
